Laboratory results taken from ChEMBL document CHEMBL4819141, “Ruthenium(II)- and Palladium(II)-catalyzed position-divergent CH oxygenations of arylated quinones: Identification of hydroxylated quinonoid compounds with potent trypanocidal activity” (Bioorg Med Chem, 2021).

What follows are compounds tested on Trypanosoma cruzi (assay: Potency index, ratio of benznidazole IC50 to test compound IC50 for trypanocidal activity against Trypanosoma cruzi Y strain bloodstream trypomastigotes isolated from infected in Albino Swiss mouse assessed as lysis of parasite in presence of 5 % mouse blood incubated for 24 hrs by Neubauer chamber method).
Type: functional

Structure (SMILES)	Ratio IC50
Cc1ccc(C)c(C2=CC(=O)c3ccccc3C2=O)c1	2
O=C1C(c2ccc(C(F)(F)F)cc2)=CC(=O)c2c(O)cccc21	4.5
Cc1ccc(C2=CC(=O)c3ccccc3C2=O)c(O)c1	2.5
CC(C)(C)c1ccc(C2=CC(=O)c3ccccc3C2=O)cc1	4

What follows are compounds tested on Trypanosoma cruzi (assay: Trypanocidal activity against Trypanosoma cruzi Y strain bloodstream trypomastigotes isolated from infected in Albino Swiss mouse assessed as lysis of parasite in presence of 5 % mouse blood incubated for 24 hrs by Neubauer chamber method).
Type: functional, organism-based

Structure (SMILES)	IC50 [µM]
Cc1ccc(O)c(C2=CC(=O)c3ccccc3C2=O)c1	99.2
O=C1C=C(c2ccc(C(F)(F)F)cc2)C(=O)c2ccccc21	335
O=C1C=C(c2ccc(F)cc2)C(=O)c2ccccc21	> 500
O=C1C=C(c2ccccc2O)C(=O)c2ccccc21	163
O=C1C(c2ccc(Cl)cc2)=CC(=O)c2c(O)cccc21	> 1000
O=C1C=C(c2ccc(I)cc2)C(=O)c2ccccc21	> 500
O=C1C=C(c2cccc(I)c2)C(=O)c2ccccc21	304
Cc1ccc(C)c(C2=CC(=O)c3ccccc3C2=O)c1	56.5
Cc1cccc(C2=CC(=O)c3c(O)cccc3C2=O)c1	95.4
O=C1C(c2cccc(I)c2)=CC(=O)c2c(O)cccc21	35.1
Cc1ccc(C2=CC(=O)c3c(O)cccc3C2=O)cc1	156
O=C1C(c2ccc(I)cc2)=CC(=O)c2c(O)cccc21	> 500
Cc1ccc(C2=CC(=O)c3ccccc3C2=O)cc1	185
O=C1C(c2ccc(F)cc2)=CC(=O)c2c(O)cccc21	71.5
COc1ccc(C2=CC(=O)c3ccccc3C2=O)cc1	303
O=C1C=C(c2ccc(Cl)cc2)C(=O)c2ccccc21	> 1000
O=C1C(c2ccc(C(F)(F)F)cc2)=CC(=O)c2c(O)cccc21	22.8
Cc1cccc(C2=CC(=O)c3ccccc3C2=O)c1	105
O=C1C=C(c2ccccc2)C(=O)c2ccccc21	96.8
O=C1C(c2ccccc2)=CC(=O)c2c(O)cccc21	115
Cc1cc(C)cc(C2=CC(=O)c3c(O)cccc3C2=O)c1	> 500
Cc1ccc(C2=CC(=O)c3ccccc3C2=O)c(O)c1	72.6
Cc1cc(C)cc(C2=CC(=O)c3ccccc3C2=O)c1	> 500
O=C1C=C(c2ccccc2F)C(=O)c2ccccc21	157
CC(C)(C)c1ccc(C2=CC(=O)c3ccccc3C2=O)cc1	25.7
